Patent US6962931B2, “Self-emulsifying formulations of cholesteryl ester transfer protein inhibitors” (Pfizer Inc., priority 2001, dated 2005)

Assay: Equilibrium solubility in excipients, vehicles and emulsion preconcentrates
Assay type: physicochemical
Settings: equilibrium
Method: The solubility of CETP inhibitors in excipients and in formulations was determined by adding an excess of compound to the medium in question. The mixture was agitated by rotation over a period of days at ambient temperature until the concentration in solution had reached an equilibrium as judged by similar measurements for consecutive time points. Concentrations were measured by filtration of aliquots with a PTFE syringe filter and assay by HPLC as described in Example 11.
The solubility of crystalline CETP inhibitors in representative vehicles was determined by adding an excess of compound to the vehicle in question. The mixture was agitated by rotation over a period of days at ambient temperature until the concentration in solution had reached equilibrium as judged by similar measurements for consecutive time points. Concentrations were measured by filtration of aliquots with a PTFE syringe filter and assayed by HPLC.
The concentrations of CETP inhibitor in each vehicle were assayed at intervals by dilution of aliquots into acetonitrile and gradient HPLC analysis on a Water Symmetry C-8 column (3.9×150 mm, 5 micron) at 30° C. at a flow rate of 1 mL/min. […] The detection method was UV absorbance at 210 nm.

For `CCOC(=O)N1c2ccc(C(F)(F)F)cc2[C@@H](N(Cc2cc(C(F)(F)F)cc(C(F)(F)F)c2)C(=O)OC)C[C@H]1CC` [Compound A, [2R,4S] 4-[(3,5-bis-trifluoromethyl-benzyl)-methoxycarbonyl-amino]-2-ethyl-6-trifluoromethyl-3,4-dihydro-2H-quinoline-1-carboxylic acid ethyl ester], the Solubility (ambient temperature, vehicle Water) was under 0.00004 mgA/ml, the Solubility (Miglyol 812/EtOH/Cremophor EL (76/4/20)) was 89 mgA/ml and the Solubility (Miglyol 812/Ethyl lactate/Cremophor EL 30/50/20) was 256 mgA/ml. For the same molecule, the Solubility (Miglyol 812/Ethyl lactate/Cremophor EL 40/40/20) was 221 mgA/ml, the Solubility (Miglyol 812/Ethyl lactate/Cremophor EL 50/30/20) was 196 mgA/ml and the Solubility (Miglyol 812/Ethyl lactate/Cremophor EL 60/20/20) was 143 mgA/ml. It also gave a Solubility (Miglyol 812/Ethyl lactate/Cremophor EL 65/15/20) of 120 mgA/ml, a Solubility (Miglyol 812/Ethyl lactate/Cremophor EL 70/10/20) of 99 mgA/ml and a Solubility (Miglyol 812/Ethyl lactate/Cremophor EL 72/8/20) of 94 mgA/ml. For the same molecule, the Solubility (Miglyol 812/Ethyl lactate/Labrasol (72/8/20)) was 98 mgA/ml, the Solubility (Miglyol 812/Ethyl lactate/Tagat TO (72/8/20)) was 87 mgA/ml and the Solubility (Miglyol 812/Peppermint Oil/Cremophor EL (72/8/20)) was 72 mgA/ml. The Solubility (Miglyol 812/Propylene carbonate/Cremophor EL 30/50/20) was 228 mgA/ml, the Solubility (Miglyol 812/Propylene carbonate/Cremophor EL 40/40/20) was 209 mgA/ml and the Solubility (Miglyol 812/Propylene carbonate/Cremophor EL 55/25/20) was 158 mgA/ml. For the same molecule, the Solubility (Miglyol 812/Propylene carbonate/Cremophor EL 72/8/20) was 108 mgA/ml, the Solubility (Miglyol 812/Propylene carbonate/Labrasol (72/8/20)) was 116 mgA/ml and the Solubility (Miglyol 812/Propylene carbonate/Tagat TO (72/8/20)) was 111 mgA/ml. The Solubility (Miglyol 812/Triacetin/Cremophor EL 30/50/20) was 198 mgA/ml, the Solubility (Miglyol 812/Triacetin/Cremophor EL 40/40/20) was 183 mgA/ml and the Solubility (Miglyol 812/Triacetin/Cremophor EL 50/30/20) was 158 mgA/ml. It also gave a Solubility (Miglyol 812/Triacetin/Cremophor EL 60/20/20) of 133 mgA/ml, a Solubility (Miglyol 812/Triacetin/Cremophor EL 65/15/20) of 111 mgA/ml and a Solubility (Miglyol 812/Triacetin/Cremophor EL 72/8/20) of 94 mgA/ml. For the same molecule, the Solubility (vehicle Capmul MCM) was 41 mgA/ml, the Solubility (vehicle Cremophor EL) was 20 mgA/ml and the Solubility (vehicle Dimethylisosorbide) was 439 mgA/ml. It also gave a Solubility (vehicle Ethyl lactate) of 400 mgA/ml, a Solubility (vehicle Glycofurol) of 99 mgA/ml and a Solubility (vehicle Labrafil M 1944) of 26 mgA/ml. It also gave a Solubility (vehicle Labrafil M 2125) of 27 mgA/ml, a Solubility (vehicle Labrasol) of 41 mgA/ml and a Solubility (vehicle Lauroglycol FCC) of 70 mgA/ml. The Solubility (vehicle Maisine 35-1) was 9 mgA/ml, the Solubility (vehicle Miglyol 812) was 65 mgA/ml and the Solubility (vehicle Miglyol 812/Capmul MCM (80/20)) was 74 mgA/ml. For the same molecule, the Solubility (vehicle Miglyol 812/Capmul MCM/Polysorbate 80 (20/60/20)) was 63 mgA/ml, the Solubility (vehicle Miglyol 812/Capmul MCM/Polysorbate 80 (40/40/20)) was 58 mgA/ml and the Solubility (vehicle Miglyol 812/Cremophor EL 80/20) was 68 mgA/ml. The Solubility (vehicle Miglyol 812/Labrafil M 1944 (80/20)) was 59 mgA/ml, the Solubility (vehicle Miglyol 812/Labrafil M 2125 (80/20)) was 57 mgA/ml and the Solubility (vehicle Miglyol 812/Labrasol (80/20)) was 69 mgA/ml. It also gave a Solubility (vehicle Miglyol 812/Peppermint oil (80/20)) of 93 mgA/ml, a Solubility (vehicle Miglyol 812/Peppermint oil (90/10)) of 79 mgA/ml and a Solubility (vehicle Miglyol 812/Tagat TO (80/20)) of 58 mgA/ml. The Solubility (vehicle Miglyol 812/propylene carbonate/Cremophor EL (60/20/20)) was 146 mgA/ml, the Solubility (vehicle Miglyol 812/triacetin (90/10), not completely miscible) was 106 mgA/ml and the Solubility (vehicle N-methyl-2-pyrrolidone) was 813 mgA/ml. It also gave a Solubility (vehicle Oleic acid) of 8.5 mgA/ml, a Solubility (vehicle Olive oil) of 17 mgA/ml and a Solubility (vehicle Olive oil/Capmul MCM (80/20)) of 23 mgA/ml. It also gave a Solubility (vehicle Olive oil/Peppermint oil (90/10)) of 25 mgA/ml, a Solubility (vehicle Peceol) of 10 mgA/ml and a Solubility (vehicle Plurol Oleique CC 497) of 17 mgA/ml. It also gave a Solubility (vehicle Pluronic L-44) of 36 mgA/ml, a Solubility (vehicle Polysorbate 80 (Tween 80)) of 23 mgA/ml and a Solubility (vehicle Propylene carbonate) of 227 mgA/ml. The Solubility (vehicle Tagat TO (Polyoxyethylene glycerol trioleate)) was 32 mgA/ml, the Solubility (vehicle Transcutol P) was 174 mgA/ml and the Solubility (vehicle Triacetin) was 235 mgA/ml. For the same molecule, the Solubility (vehicle Triethyl citrate) was 240 mgA/ml and the Solubility (vehicle peppermint oil) was 266 mgA/ml.
